Measurements published in patent publication US20060069132A1, “Azolecarboxamide herbicides” (priority 2004, published 2006).

What was measured:
cocklebur = assay: Test C pre-/postemergence herbicide test; assay type: in vivo, Xanthium strumarium; conditions: for Cocklebur plant response rating: 500 g ai/ha
Text: (§1) Seeds of plant species selected from bermudagrass (Cynodon dactylon (L.) Pers.), Surinam grass (Urochloa decumbens (Staph) R. D. Webster, previously named Brachiaria decumbens Stapf), cocklebur (Xanthium strumarium L.), corn (Zea mays L.), large crabgrass (Digitaria sanguinalis (L.) Scop.), woolly cupgrass (Eriochloa villosa (Thunb.) Kunth), giant foxtail (Setaria faberi Herrm.), goosegrass (Eleusine indica (L.) Gaertn.), johnsongrass (Sorghum halepense (L.) Pers.), kochia (Kochia scoparia (L.) Schrad.), lambsquarters (Chenopodium album L.), morningglory (Ipomoea coccinea L.), eastern black nightshade (Solanum ptycanthum Dunal), yellow nutsedge (Cyperus esculentus L.), pigweed (Amaranthus retroflexus L.), common ragweed (Ambrosia elatior L.), soybean (Glycine max (L.) Merr.), common (oilseed) sunflower (Helianthus annuus L.) and velvetleaf (Abutilon theophrasti Medik.) were planted and treated preemergence with test chemicals formulated in a non-phytotoxic solvent mixture which included a surfactant.
(§2) At the same time, plants selected from these crop and weed species and also winter barley (Hordeum vulgare L.), blackgrass (Alopecurus myosuroides Huds.), canarygrass (Phalaris minor Retz.), chickweed (Stellaria media (L.) Vill.), downy bromegrass (Bromus tectorum L.), green foxtail (Setaria viridis (L.) Beauv.), Italian ryegrass (Lolium multiflorum Lam.), wheat (Triticum aestivum L.), wild oat (Avenafatua L.) and windgrass (Apera spica-venti (L.) Beauv.) were treated with postemergence applications of some of the test chemicals formulated in the same manner. Plants ranged in height from 2 to 18 cm (1- to 4-leaf stage) for postemergence treatments. Plant species in the flooded paddy test consisted of rice (Oryza sativa), smallflower umbrella sedge (Cyperus difformis L.), ducksalad (Heteranthera limosa (Sw.) Willd.) and barnyardgrass (Echinochloa crus-galli (L.) Beauv.) grown to the 2-leaf stage for testing. Treated plants and controls were maintained in a greenhouse for 12 to 14 days, after which time all species were compared to controls and visually evaluated. Plant response ratings, summarized in Table C, are based on a scale of 0 to 100 where 0 is no effect and 100 is complete control. A dash (-) response means no test result.

kochia = assay: Test C pre-/postemergence herbicide test; assay type: in vivo, Kochia scoparia; conditions: for Kochia plant response rating: 500 g ai/ha
Text: as §1, §2

morningglory = assay: Test B pre-/postemergence herbicide test; assay type: in vivo, Ipomoea coccinea; conditions: for Morningglory plant response rating: postemergence
How it was run: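 Visual rating, 0 (no effect) to 100 (complete control), versus untreated controls after 13–15 d in greenhouse. Pre- and postemergence applications (postemergence plants 2–18 cm, 1–4 leaves); flooded paddy arm at 2-leaf stage. Compounds in non-phytotoxic solvent plus surfactant.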

lambsquarters = assay: Test B pre-/postemergence herbicide test; assay type: in vivo, Chenopodium album; conditions: for Lambsquarters plant response rating: postemergence
How it was run: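 Evaluation is visual, comparing treated with control plants on a scale where 0 means no effect and 100 means full control. Treatments were preemergence, or postemergence on seedlings 2–18 cm tall, and held 13–15 days in the greenhouse.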

yellow nutsedge = assay: Test C pre-/postemergence herbicide test; assay type: in vivo, Cyperus esculentus; conditions: for Nutsedge, Yellow plant response rating: 500 g ai/ha
Text: as §1, §2

soybean = assay: Test C pre-/postemergence herbicide test; assay type: in vivo, Glycine max; conditions: for Soybean plant response rating: 500 g ai/ha
Text: as §1, §2

barnyardgrass = assay: Test A pre-/postemergence herbicide test; assay type: in vivo, Echinochloa crus-galli
How it was run: (§3)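 Both application timings were run together: directed soil spray over freshly planted seeds in sandy loam, and runoff spray onto 2–10 cm seedlings. Evaluation after ~10 days in greenhouse used a 0–100 visual scale versus untreated controls.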

redroot pigweed = assay: Test A pre-/postemergence herbicide test; assay type: in vivo, Amaranthus retroflexus
How it was run: as §3

[1] = Postemergence, 250 g ai/ha, scale 0 to 100, 0 no effect, 100 complete control
[2] = postemergence, 125 g ai/ha, scale 0 to 100
[3] = postemergence, 62 g ai/ha, scale 0 to 100
[4] = Postemergence, 500 g ai/ha, visual rating after 13 to 15 days, scale 0 (no effect) to 100 (complete control)
[5] = 125 g ai/ha, visual rating, scale 0 (no effect) to 100 (complete control)
[6] = preemergence, 125 g ai/ha, 0 to 100 scale, 0 is no effect, 100 is complete control
[7] = Postemergence, 500 g ai/ha, 0 to 100 scale, 0 no effect, 100 complete control
[8] = Postemergence, 2000 g ai/ha, 0 to 100 scale, 0 no effect, 100 complete control
[9] = Preemergence, 500 g ai/ha, visual rating, 0 to 100 scale (0 no effect, 100 complete control)
[10] = Preemergence, 2000 g ai/ha, 0 to 100 scale, 0 no effect, 100 complete control
[11] = Preemergence, 2000 g ai/ha, visual rating, 0 to 100 scale (0 no effect, 100 complete control)
[12] = 500 g ai/ha, visual rating 0-100, 0 no effect, 100 complete control, preemergence
[13] = preemergence, 500 g ai/ha, visual injury, 0 to 100 scale (0 no effect, 100 complete control)
[14] = 125 g ai/ha, 0 = no effect, 100 = complete control, preemergence
[15] = 500 g ai/ha, visual rating, 0 = no effect, 100 = complete control, preemergence
[16] = 500 g ai/ha, scale 0 to 100, 0 is no effect, 100 is complete control

Compound | Plant response rating, Cocklebur (cocklebur; [1]) | Plant response rating, Cocklebur (cocklebur; [2]) | Plant response rating, Cocklebur (cocklebur; [3]) | Plant response rating, Kochia (kochia; [1]) | Plant response rating, Kochia (kochia; [2]) | Plant response rating, Kochia (kochia; [3]) | Plant response rating, Morningglory (morningglory; [4]) | Morningglory plant response rating (morningglory; [5]) | Plant response rating, Morningglory (morningglory; [6]) | Plant response rating, Lambsquarters (lambsquarters; [4]) | Lambsquarters plant response rating (lambsquarters; [5]) | Plant response rating, Lambsquarters (lambsquarters; [6]) | Plant response rating, Nutsedge, Yellow (yellow nutsedge; [1]) | Plant response rating, Nutsedge, Yellow (yellow nutsedge; [2]) | Plant response rating, Nutsedge, Yellow (yellow nutsedge; [3]) | Plant response rating, Soybean (soybean; [1]) | Plant response rating, Soybean (soybean; [2]) | Plant response rating, Soybean (soybean; [3]) | Barnyardgrass plant response rating (barnyardgrass; [7]) | Plant response rating, Barnyardgrass (barnyardgrass; [8]) | other results
CCn1nc(C(C)(C)C)cc1C(=O)Nc1cccc(C(=O)OC)c1 [Compound 81] | 60 | 55 | 55 | 70 | 20 | 0 | 30 | 0 | 10 | 50 | 0 | 0 | 0 | 0 | 0 | 30 | 30 | 10 |  |  | Plant response rating, Cocklebur (cocklebur; postemergence, 31 g ai/ha, scale 0 to 100): 50
C#CCOC(=O)c1cccc(NC(=O)c2cc(C(C)(C)C)nn2CC)c1 [Compound 84] | 0 | 0 | 0 | 10 | 0 | 0 | 60 | 30 | 0 | 60 | 0 | 0 | 0 | 0 | 0 | 20 | 0 | 0 | 15 | 10 | Barnyardgrass plant response rating (barnyardgrass; [9]): 0; Barnyardgrass plant response rating (barnyardgrass; [10]): 0; Cocklebur plant response rating (cocklebur; Postemergence, scale 0 to 100): 0; Kochia plant response rating (kochia; Postemergence, scale 0 to 100): 80; Nutsedge, Yellow plant response rating (yellow nutsedge; Postemergence, scale 0 to 100): 0; Pigweed plant response rating (redroot pigweed; [7]): 50; Plant response rating, Pigweed (redroot pigweed; [8]): 45; Pigweed plant response rating (redroot pigweed; [9]): 0; Pigweed plant response rating (redroot pigweed; [10]): 0; Soybean plant response rating (soybean; Postemergence, scale 0 to 100): 20
C=CCOC(=O)c1cccc(NC(=O)c2cc(C(C)(C)C)nn2CC)c1 [Compound 85] | 100 | 80 | 20 | 90 | 60 | 20 | 100 | 50 | 0 | 60 | 50 | 0 | 20 | 20 | 10 | 80 | 60 | 55 | 20 | 25 | Barnyardgrass plant response rating (barnyardgrass; [9]): 0; Barnyardgrass plant response rating (barnyardgrass; [10]): 0; Cocklebur plant response rating (cocklebur; Postemergence, scale 0 to 100): 100; Kochia plant response rating (kochia; Postemergence, scale 0 to 100): 90; Nutsedge, Yellow plant response rating (yellow nutsedge; Postemergence, scale 0 to 100): 40; Pigweed plant response rating (redroot pigweed; [7]): 75; Plant response rating, Pigweed (redroot pigweed; [8]): 70; Pigweed plant response rating (redroot pigweed; [9]): 0; Pigweed plant response rating (redroot pigweed; [10]): 5; Soybean plant response rating (soybean; Postemergence, scale 0 to 100): 95
CC(=NO)c1cccc(NC(=O)c2cc(C(C)(C)C)nn2CC(F)(F)F)c1 [Compound 112] | 60 | 30 | 0 |  | 20 | 0 | 30 | 20 | 0 | 100 | 90 | 0 | 20 | 0 | 0 | 50 | 0 | 0 | 35 | 45 | Barnyardgrass plant response rating (barnyardgrass; [9]): 25; Barnyardgrass plant response rating (barnyardgrass; [11]): 50; Cocklebur plant response rating (cocklebur; Postemergence, scale 0 to 100): 70; Kochia plant response rating (kochia; Postemergence, scale 0 to 100): 80; Plant response rating, Morningglory (morningglory; [12]): 60; Plant response rating, Lambsquarters (lambsquarters; [12]): 90; Nutsedge, Yellow plant response rating (yellow nutsedge; Postemergence, scale 0 to 100): 20; Pigweed plant response rating (redroot pigweed; [7]): 40; Plant response rating, Pigweed (redroot pigweed; [8]): 60; Pigweed plant response rating (redroot pigweed; [9]): 65; Pigweed plant response rating (redroot pigweed; [11]): 90; Soybean plant response rating (soybean; Postemergence, scale 0 to 100): 60
CCn1nc(C(C)(C)C)cc1C(=O)Nc1cccc(OC(F)(F)F)c1 [Compound 272] | 60 | 60 | 15 | 100 | 100 | 95 |  | 90 |  |  | 100 |  | 0 | 0 | 0 | 85 | 80 | 60 | 55 | 90 | Barnyardgrass plant response rating (barnyardgrass; [11]): 100; Barnyardgrass plant response rating (barnyardgrass; [13]): 70; Cocklebur plant response rating (cocklebur; Postemergence, scale 0 to 100): 95; Kochia plant response rating (kochia; Postemergence, scale 0 to 100): 100; Morningglory plant response rating (0 to 100 scale) (morningglory; [14]): 0; Plant response rating, Morningglory (morningglory; [15]): 30; Morningglory plant response rating (morningglory; [16]): 100; Lambsquarters plant response rating (0 to 100 scale) (lambsquarters; [14]): 100; Plant response rating, Lambsquarters (lambsquarters; [15]): 100; Lambsquarters plant response rating (lambsquarters; [16]): 100; Nutsedge, Yellow plant response rating (yellow nutsedge; Postemergence, scale 0 to 100): 0; Pigweed plant response rating (redroot pigweed; [7]): 100; Plant response rating, Pigweed (redroot pigweed; [8]): 100; Pigweed plant response rating (redroot pigweed; [11]): 100; Pigweed plant response rating (redroot pigweed; [13]): 100; Soybean plant response rating (soybean; Postemergence, scale 0 to 100): 95
